Laboratory results: PubChem BioAssay AID248 (DTP/NCI, 2004)
Where “and” joins values, the source holds several entries; their conditions need not be identical. Equal values may be shown once. Inconclusive results and toxic doses are left out. Rule as the data show it: active = T/C of 150% or more; inactive = T/C below 125%.

Test system: L1210 leukemia ip in BDF1 mice, survival T/C
Experiment: NCI In Vivo Anticancer Drug Screen. Data for tumor model L1210 Leukemia (intraperitoneal) in B6D2F1 (BDF1) mice
Details: endpoint: mean survival time, higher = longer survival
Method in brief: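 Survival endpoint. Drug-treated group vs vehicle group, expressed as T divided by C. Tumor passaged by transplantation.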

[1] = dose: 100.0 mg/kg/injection, schedule: Q01DX009 (ip), vehicle: Klucel (hydroxypropylcellulose) (HPC)
[2] = dose: 100.0 mg/kg/injection, schedule: Q04DX003 (ip), vehicle: Klucel (hydroxypropylcellulose) (HPC)
[3] = dose: 200.0 mg/kg/injection, schedule: Q04DX003 (ip), vehicle: Klucel (hydroxypropylcellulose) (HPC)
[4] = dose: 400.0 mg/kg/injection, schedule: Q04DX003 (ip), vehicle: Klucel (hydroxypropylcellulose) (HPC)
[5] = dose: 200.0 mg/kg/injection, schedule: Q01DX009 (ip), vehicle: Klucel (hydroxypropylcellulose) (HPC)
[6] = dose: 400.0 mg/kg/injection, schedule: Q01DX009 (ip), vehicle: Klucel (hydroxypropylcellulose) (HPC)
[7] = dose: 100.0 mg/kg/injection, schedule: Q04DX003 (ip), vehicle: saline with Tween-80
[8] = dose: 400.0 mg/kg/injection, schedule: Q04DX003 (ip), vehicle: saline with Tween-80
[9] = dose: 100.0 mg/kg/injection, schedule: Q04DX003 (ip), vehicle: other
[10] = dose: 200.0 mg/kg/injection, schedule: Q04DX003 (ip), vehicle: other
[11] = dose: 50.0 mg/kg/injection, schedule: Q01DX009 (ip), vehicle: saline with Tween-80
[12] = dose: 100.0 mg/kg/injection, schedule: Q01DX009 (ip), vehicle: saline with Tween-80
[13] = dose: 100.0 mg/kg/injection, schedule: Q01DX005 (ip), vehicle: saline
[14] = dose: 200.0 mg/kg/injection, schedule: Q01DX005 (ip), vehicle: saline
[15] = dose: 200.0 mg/kg/injection, schedule: Q01DX009 (ip), vehicle: saline with Tween-80
[16] = dose: 100.0 mg/kg/injection, schedule: Q01DX009 (ip), vehicle: saline
[17] = dose: 200.0 mg/kg/injection, schedule: Q01DX009 (ip), vehicle: saline
[18] = dose: 400.0 mg/kg/injection, schedule: Q01DX009 (ip), vehicle: saline
[19] = dose: 100.0 mg/kg/injection, schedule: Q04DX003 (ip), vehicle: saline
[20] = dose: 200.0 mg/kg/injection, schedule: Q04DX003 (ip), vehicle: saline
[21] = dose: 400.0 mg/kg/injection, schedule: Q04DX003 (ip), vehicle: saline
[22] = dose: 200.0 mg/kg/injection, schedule: Q04DX003 (ip), vehicle: saline with Tween-80

Measured: T/C

O=C(CBr)NCC(S)c1ccc(Cl)cc1 (stereo unspecified)
inactive: dose: 50.0 mg/kg/injection, schedule: Q01DX009 (ip), vehicle: Klucel (hydroxypropylcellulose) (HPC) 97 % of control | [1] 95 % of control | [2] 93 % of control | [3] 88 % of control | [4] 102 % of control

O=C(O)c1ccccc1C(=O)c1ccc2c3c(cccc13)CC2
inactive: [1] 104 % of control | [2] 107 % of control | [5] 107 % of control | [3] 102 % of control | [6] 105 % of control | [4] 100 % of control

NC(N)=NC(=O)COc1ccc(Cl)cc1Cl
inactive: dose: 100.0 mg/kg/injection, schedule: Q04DX002 (ip), vehicle: saline + alcohol 100 % of control | dose: 200.0 mg/kg/injection, schedule: Q04DX002 (ip), vehicle: saline + alcohol 107 % of control

CC1(C)CCC(CC(=O)O)(CC(=O)O)CC1
inactive: [7] 95 % of control | [8] 92 % of control

N#CC(C#N)=Cc1csc2ccccc12
inactive: dose: 100.0 mg/kg/injection, schedule: Q01DX001 (ip), vehicle: saline 93 % of control | dose: 200.0 mg/kg/injection, schedule: Q01DX001 (ip), vehicle: saline 102 % of control | dose: 400.0 mg/kg/injection, schedule: Q01DX001 (ip), vehicle: saline 102 % of control

CCOC(=O)C(C(=O)OCC)N(C(=O)C(Cl)Cl)c1ccccc1
inactive: [9] 97 % of control | [10] 96 % of control | dose: 400.0 mg/kg/injection, schedule: Q04DX003 (ip), vehicle: other 94 % of control

Oc1c(Cl)cc(Cl)c2cccnc12
inactive: dose: 12.5 mg/kg/injection, schedule: Q01DX009 (ip), vehicle: saline with Tween-80 92 % of control | dose: 25.0 mg/kg/injection, schedule: Q01DX009 (ip), vehicle: saline with Tween-80 90 % of control | dose: 50.0 mg/kg/injection, schedule: Q01DX001 (ip), vehicle: carboxymethylcellulose (CMC) 98 % of control | [11] 92 % of control | dose: 100.0 mg/kg/injection, schedule: Q01DX001 (ip), vehicle: carboxymethylcellulose (CMC) 91 % of control | [12] 94 % of control

Cc1ccc(C)c(NC(=O)c2ccccc2C(=O)O)c1
inactive: [1] 102 % of control | [2] 101 % of control | [5] 104 % of control | [3] 102 % of control | [6] 93 % of control | [4] 98 % of control

C1COB(OCCNCCOB2OCCNCCO2)OCCN1
inactive: dose: 100.0 mg/kg/injection, schedule: Q01DX009 (ip), vehicle: carboxymethylcellulose (CMC) 100 % of control | dose: 100.0 mg/kg/injection, schedule: Q04DX002 (ip), vehicle: carboxymethylcellulose (CMC) 98 % of control and 101 % of control | dose: 100.0 mg/kg/injection, schedule: Q04DX003 (ip), vehicle: carboxymethylcellulose (CMC) 100 % of control | dose: 200.0 mg/kg/injection, schedule: Q01DX009 (ip), vehicle: carboxymethylcellulose (CMC) 97 % of control and 106 % of control | dose: 200.0 mg/kg/injection, schedule: Q04DX002 (ip), vehicle: carboxymethylcellulose (CMC) 95 % of control and 103 % of control | dose: 200.0 mg/kg/injection, schedule: Q04DX003 (ip), vehicle: carboxymethylcellulose (CMC) 104 % of control | dose: 400.0 mg/kg/injection, schedule: Q01DX009 (ip), vehicle: carboxymethylcellulose (CMC) 100 % of control | dose: 400.0 mg/kg/injection, schedule: Q04DX002 (ip), vehicle: carboxymethylcellulose (CMC) 103 % of control and 106 % of control | dose: 400.0 mg/kg/injection, schedule: Q04DX003 (ip), vehicle: carboxymethylcellulose (CMC) 100 % of control

OCC1OC(n2cc(Br)c3c2ncn2ccnc32)C(O)C1O (stereo unspecified)
inactive: dose: 50.0 mg/kg/injection, schedule: Q01DX005 (ip), vehicle: saline 98 % of control | [13] 104 % of control | [14] 104 % of control

C=CCSc1nc(N)nc2nc[nH]c12
inactive: [11] 122 % of control | [12] 123 % of control | [15] 124 % of control

O=c1oc2ccc(Cl)cc2c2ccccc12
inactive: [2] 98 % of control | [3] 100 % of control | [4] 104 % of control

CC/C=C(\CCC)C1(CC)C(=O)NC(=O)NC1=O
inactive: dose: 75.0 mg/kg/injection, schedule: Q01DX001 (ip), vehicle: saline 94 % of control | dose: 150.0 mg/kg/injection, schedule: Q01DX001 (ip), vehicle: saline 105 % of control

COc1cc(OC)c2cc1Cc1cc(c(OC)cc1OC)Cc1cc(c(OC)cc1OC)Cc1cc(c(OC)cc1OC)C2
inactive: [16] 94 % of control | [17] 86 % of control | [18] 86 % of control

CC1(C)C2CCC1(C)C(c1ccc(O)cc1)C2 (stereo unspecified)
inactive: [2] 104 % of control | [3] 101 % of control | [4] 102 % of control

COCOCP(=O)(OC)OC
inactive: dose: 100.0 mg/kg/injection, schedule: Q01DX001 (ip), vehicle: acetone 102 % of control | dose: 100.0 mg/kg/injection, schedule: Q04DX003 (ip), vehicle: acetone 106 % of control | dose: 200.0 mg/kg/injection, schedule: Q01DX001 (ip), vehicle: acetone 98 % of control | dose: 200.0 mg/kg/injection, schedule: Q04DX003 (ip), vehicle: acetone 98 % of control | dose: 400.0 mg/kg/injection, schedule: Q01DX001 (ip), vehicle: acetone 95 % of control | dose: 400.0 mg/kg/injection, schedule: Q04DX003 (ip), vehicle: acetone 92 % of control

Nc1ccccc1SC1CC(=O)N(c2ccccc2)C1=O (stereo unspecified)
inactive: dose: 100.0 mg/kg/injection, schedule: Q01DX009 (ip), vehicle: other 95 % of control | [19] 94 % of control | dose: 200.0 mg/kg/injection, schedule: Q01DX009 (ip), vehicle: other 92 % of control | [20] 89 % of control | dose: 400.0 mg/kg/injection, schedule: Q01DX009 (ip), vehicle: other 92 % of control | [21] 91 % of control

CC(O)CN1CC(C)N(CC(C)O)CC1C (stereo unspecified)
inactive: [16] 104 % of control | [19] 100 % of control | [17] 102 % of control | [20] 86 % of control | [18] 98 % of control | [21] 88 % of control

CC(NCCO)C(O)c1ccccc1 (stereo unspecified)
inactive: [16] 94 % of control | [19] 95 % of control | [17] 94 % of control | [20] 104 % of control | [18] 103 % of control | [21] 97 % of control

CCN1C(=O)C(CC)(Cc2ccccc2)C(=O)NC1=S (stereo unspecified)
inactive: dose: 75.0 mg/kg/injection, schedule: Q01DX001 (ip), vehicle: alkali diluted with saline 103 % of control | dose: 75.0 mg/kg/injection, schedule: Q01DX001 (ip), vehicle: other 108 % of control | dose: 150.0 mg/kg/injection, schedule: Q01DX001 (ip), vehicle: alkali diluted with saline 98 % of control | dose: 150.0 mg/kg/injection, schedule: Q01DX001 (ip), vehicle: other 105 % of control | dose: 300.0 mg/kg/injection, schedule: Q01DX001 (ip), vehicle: alkali diluted with saline 108 % of control | dose: 300.0 mg/kg/injection, schedule: Q01DX001 (ip), vehicle: other 103 % of control

CCSC(C(O)C(O)C(O)CO)n1ccc(N)nc1=O (stereo unspecified)
inactive: [13] 101 % of control and 104 % of control | [16] 106 % of control and 109 % of control | [14] 95 % of control and 98 % of control and 101 % of control | [17] 106 % of control and 98 % of control | [18] 112 % of control and 102 % of control

O=C(Nc1ccccc1)Oc1cccc2cccnc12
inactive: dose: 50.0 mg/kg/injection, schedule: Q04DX003 (ip), vehicle: Klucel (hydroxypropylcellulose) (HPC) 100 % of control | [2] 105 % of control | [3] 97 % of control

C=CCOc1ccccn1
inactive: [11] 98 % of control | dose: 50.0 mg/kg/injection, schedule: Q04DX003 (ip), vehicle: saline with Tween-80 105 % of control | [12] 104 % of control | [7] 98 % of control | [15] 98 % of control | [22] 102 % of control

O=C1CCCCCCCCCCC1Br (stereo unspecified)
inactive: [12] 110 % of control | [7] 92 % of control | [15] 95 % of control | [22] 87 % of control | dose: 400.0 mg/kg/injection, schedule: Q01DX009 (ip), vehicle: saline with Tween-80 87 % of control | [8] 92 % of control

CC(C)(C)P1(=O)OCC(c2ccccc2)CO1 (stereo unspecified)
inactive: [9] 101 % of control | [10] 107 % of control
